Values quoted from earlier work, collected in patent publication US6573290B1 (ILEX Oncology, Inc., priority 1999, dated 2003).

Legend:
tumor putrescine = conditions: DFMO infusion, rat-tumor model
Ki-ras mutations = conditions: AOM-treated rats; reduced from 90%
[1] = not given; remark: listed apart in the source
prostoglandin E2 (PGE2) = conditions: 300 mg/day, one month phase IIa trial

NCCCC(N)(C(=O)O)C(F)F (racemic) [DFMO, 2-(difluoromethyl)-DL-ornithine]
decrease in tumor putrescine levels (tumor putrescine): 90%
number of tumors harboring Ki-ras mutations (Ki-ras mutations): 36%

Cc1ccc(-c2cc(C(F)(F)F)nn2-c2ccc(S(N)(=O)=O)cc2)cc1 [celecoxib, 4-[5-(4-methyphenyl)-3-(trifluoromethyl)-1H-pyrazol-1-yl]benzenesulfonamide]
time of peak plasma levels (after an oral dose): roughly 3 hours
effective half-life (fasted conditions): roughly 11 hours
dose excreted in feces (following a single dose): 57%
dose excreted in urine (following a single dose): 27%
delay of plasma levels with high fat meal (taken with a high fat meal): 1 to 2 h
increase in total absorption with high fat meal (taken with a high fat meal): 10-20%
protein binding (within the clinical dose range): highly protein bound

CC[C@H]1OC(=O)[C@H](C)[C@@H](O[C@H]2C[C@@](C)(OC)[C@@H](O)[C@H](C)O2)[C@H](C)[C@@H](O[C@@H]2O[C@H](C)C[C@H](N(C)C)[C@H]2O)[C@](C)(OC)C[C@@H](C)C(=O)[C@H](C)[C@@H](O)[C@]1(C)O [clarithrymycin]
adverse effect: pseudomembranous colitis [1]: 1%
adverse effect: diarrhea ([1]; in vivo): 10%

CC(C)Cc1ccc(C(C)C(=O)O)cc1 (stereo not shown) [ibuprofen]
PGE2 levels in flat mucosa (prostoglandin E2 (PGE2)): significant decrease

Cc1c(OCC(F)(F)F)ccnc1C[S+]([O-])c1nc2ccccc2[nH]1 (stereo not shown) [lansoprazole]
adverse effect: diarrhea ([1]; in vivo): 8%
adverse effect: headache ([1]; in vivo): 5%
adverse effect: nausea ([1]; in vivo): 3%

Cc1ncc([N+](=O)[O-])n1CCO [metronidazole]
adverse effect: disulfiram-like reaction with alcohol ingestion ([1]; in vivo): 20%
adverse effect: rash ([1]; in vivo): 5%

COc1ccc2[nH]c([S+]([O-])Cc3ncc(C)c(OC)c3C)nc2c1 (stereo not shown) [omeprazole]
adverse effect: dizziness ([1]; in vivo): 2%

CN1C(C(=O)Nc2ccccn2)=C(O)c2ccccc2S1(=O)=O [piroxicam]
number of tumors harboring Ki-ras mutations (Ki-ras mutations): 25%
